Test results published in patent US20220105244A1, “METHODS AND COMPOSITIONS FOR PROTECTION OF BIOPROSTHETIC HEART VALVE TISSUE FROM GLYCATION AND ASSOCIATED PROTEIN INCORPORATION” (The Trustees of Columbia University in the City of New York, priority 2019, published 2022).

Experiments:
[1] = system: glutaraldehyde-fixed bovine pericardium (Glut-BP); assay: Uptake of 14C-radiolabeled glyoxal by glut-BP; settings: 6-week pre-incubation at 37° C., 1× (7.2 μmol/mg glut-BP); 24 hours at 37° C. in 50 mM 14C-glyoxal
Procedure: FIG. 9. Bar graph of the quantitation of uptake by glutaraldehyde-fixed bovine pericardium (Glut-BP) of radioactively-labeled glycation precursor after 24 hours of incubation at 37° C. in 50 mM ^14C-radiolabeled glyoxal. Glut-BP was either kept in phosphate-buffered saline solution (PBS) in storage at 4° C. or placed in pre-incubation at 37° C. in PBS, PBS+1×1,5-dihydro-2H-pyrrol-2-one at 7.2 μmol/mg glut-BP, or PBS+1×4-(1-methyl-1H-imidazol-4-yl)butanal at 7.2 μmol/mg glut-BP.
The above interpretations are supported by quantitation of uptake of glycation precursor by glut-BP using carbon-14-radiolabeled glyoxal, which indicates approximately 15% decreases in overall glycation versus by an extreme concentration (50 mM) of glyoxal in glut-BP pre-treated by 6-week incubation at 37° C. in PBS alone or 1×1,5 or 1×4IB, shown in FIG. 9.

[2] = system: N-carboxymethyl lysine (CML); assay: Immunohistochemistry with anti-CML antibody after glyoxal glycation; set-up: species or system bovine
Procedure: As a preliminary specific chemical analysis, immunohistochemistry was performed using a standard anti-CML (AbCAM #ab27684 @ 1:5000 dilution) antibody to probe for the best-studied glycation product, N-carboxymethyl lysine, after control or anti-glycated glutaraldehyde-fixed bovine pericardium tissue discs were glycated under aggressive conditions known to efficiently generate CML (one week incubation at 37° C. in 50 mM glyoxal). Brown staining indicates presence of CML.

[3] = system: N-carboxyethyl lysine (CEL); assay: Immunohistochemistry with antibody for N-carboxyethyl lysine after methylglyoxal glycation; set-up: species or system bovine; settings: anti-glycated vs untreated tissue
Procedure: (§1) Anti-glycation pretreatments have been performed for 1-, 2-, 4-, and 6-week-long durations for both 1,5-dihydro-2H-pyrrol-2-one as well as 4-(1-methyl-1H-imidazol-4-yl)butanal, and diversified 1-week glycation reactions have been applied to these samples. Namely, these conditions are 50 mM glyoxal, 50 mM methylglyoxal, and 50 mM glyoxal+5% human serum albumin. An antibody for N-carboxyethyl lysine, a major product of methylglyoxal glycation, was utilized for immunohistochemical staining.

[4] = system: glutaraldehyde-fixed bovine pericardium; assay: Maillard browning of anti-glycation pre-treated tissue discs after in vitro glycation; settings: for tissue browning due to aggressive glycation: 6 weeks anti-glycation pretreatment at 37° C. (1,5 at pH 9.0), 1-week 50 mM glyoxal, methylglyoxal or glyoxal+5% human serum albumin
Procedure: A general method flow chart is described below. First, standard 0.6% glutaraldehyde fixation protocol (+/−any additional technology, e.g., anti-calcification). Second, wash protocol in phosphate-buffered saline to remove residual unreacted glutaraldehyde or other compounds. Third, incubation in subject compounds dissolved in, for example, phosphate-buffered saline at 37° C. for 6 weeks. Fourth, wash protocol in phosphate-buffered saline to remove residual unreacted anti-glycation precursor. Fifth, storage (usually in 0.2% glutaraldehyde.
as §1
“Maillard browning” is a classic and straightforward visual indicator of glycation. Formation of glycation products causes brown hues to develop in glycated tissues and proteinaceous materials. As a preliminary endpoint for initial anti-glycation efficacy studies, the inventors sought to evaluate prevention of browning due to glycation in glutaraldehyde-fixed bovine pericardium, the most common bioprosthetic heart valve biomaterial (and also widely used in other bioprosthetic implants), by pretreatment with the designed anti-glycation compounds. Short term (3-day) and long-term (6-week) protective incubation durations at physiological temperature (37° C.) were chosen as a starting point. Anti-glycation was followed by extensive washing of tissue in phosphate-buffered saline (PBS) to remove any unreacted anti-glycation precursor and extreme glycation conditions (1-week incubation in 50 mM doses of either methylglyoxal or glyoxal, two of the most reactive physiologically-relevant glycation precursors, or 50 mM glyoxal+5% human serum albumin, which exacerbates browning). Treatments and evaluation of browning have been performed with 1,5-dihydro-2H-pyrrol-2-one (“1,5,” compound 3) and 4-(1H-Imidazol-4-yl)butanal (“4IB”).

| Compound | decrease in overall glycation (uptake of 14C-glyoxal) [1] | CML formation in response to glyoxal ([2]; anti-glycated vs untreated tissue) | CML formation ([2]; pretreatment for 6 weeks, one week incubation at 37° C. in 50 mM glyoxal) | CEL formation in response to methylglyoxal [3] | protection against optical browning ([4]; 50 mM glyoxal, 50 mM methylglyoxal, or 50 mM glyoxal+5% HSA for 7 days at 37° C.) | tissue browning due to aggressive glycation [4] | incorporation of glycated (browned) albumin (tissue color, precursor alone vs precursor plus albumin) ([4]; 6 weeks pretreatment, 50 mM glyoxal+5% human serum albumin) |
| --- | --- | --- | --- | --- | --- | --- | --- |
| O=C1C=CCN1 [Compound 3, 1,5-dihydro-2H-pyrrol-2-one] | approximately 15% | still formed similarly as in untreated tissue | not mitigated | still formed similarly as in untreated tissue | dramatic protection | dramatic diminishment of tissue browning | effectively blocks incorporation of glycated (browned) albumin |
| O=CCCCc1c[nH]cn1 [Compound 5, 4-(1H-Imidazol-4-yl)butanal] | approximately 15% |  |  |  |  | Protection from browning is less pronounced |  |
